From PMC4687966 (Journal of medicinal chemistry, 2015)

Experiments:
Mtb BioA [1] = molecular target: T1, Mtb BioA (Mycobacterium tuberculosis, UniProt P9WQ81); assay type: binding; conditions: for KA / ΔH / −TΔS / ΔG: 25 °C; for KA / ΔH: 100 µM BioA, pH 7.5; for −TΔS: from ΔG = ΔH − TΔS; for ΔG: ΔG = −RT ln KA; for LE (ligand efficiency): LE = (−ΔG)/N, N = number of non-hydrogen atoms
Mtb BioA [2] = molecular target: T1, Mtb BioA; test: Differential scanning fluorimetry; assay type: binding; conditions: DSF; holo BioA Tm 85 °C

T1 sequence (P9WQ81 whole entry): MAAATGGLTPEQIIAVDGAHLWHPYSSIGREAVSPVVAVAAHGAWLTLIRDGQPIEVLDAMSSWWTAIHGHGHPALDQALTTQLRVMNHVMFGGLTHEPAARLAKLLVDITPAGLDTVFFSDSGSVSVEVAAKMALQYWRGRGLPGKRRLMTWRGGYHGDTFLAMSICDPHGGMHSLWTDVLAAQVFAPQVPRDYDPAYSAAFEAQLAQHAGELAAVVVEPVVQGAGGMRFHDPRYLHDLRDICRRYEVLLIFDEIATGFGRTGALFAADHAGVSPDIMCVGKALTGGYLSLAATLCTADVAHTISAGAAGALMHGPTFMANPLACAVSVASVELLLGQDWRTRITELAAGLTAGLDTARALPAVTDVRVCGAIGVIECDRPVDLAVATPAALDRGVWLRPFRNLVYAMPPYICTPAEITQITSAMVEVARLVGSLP

Row | SMILES | KA (Mtb BioA [1]; ITC) | ΔH (Mtb BioA [1]; ITC) [kcal/mol] | −TΔS (Mtb BioA [1]; ITC) [kcal/mol] | ΔG (Mtb BioA [1]; ITC) [kcal/mol] | LE (ligand efficiency) (Mtb BioA [1]) | Tm of BioA with compound (Mtb BioA [2]) [°C] | Improvement in KD over the parent fragment F5 (Mtb BioA [1]; ITC) [fold] | ΔH (enthalpic stabilization) (Mtb BioA [1]; ITC) [kcal/mol] | −TΔS (binding entropy) (Mtb BioA [1]; ITC)
1 | NC(=O)c1ccc(-c2ccccn2)s1 [F2] | 14.6 ± 1.3 10^4 M^−1 | -5.4 ± 0.0 | -1.6 ± 0.1 | -7.0 ± 0.1 | 0.50 | – | – | – | –
2 | NC(=O)c1ccc(-n2ccnc2)cc1 [F3] | 6.8 ± 1.3 10^4 M^−1 | -6.3 ± 0.2 | -0.2 ± 0.1 | -6.6 ± 0.1 | 0.47 | – | – | – | –
3 | NCc1ccc(Cn2cc(Cl)cn2)cc1 [F5.1] | 14.9 ± 1.7 10^4 M^−1 | -11.3 ± 0.5 | 4.3 ± 0.5 | -7.0 ± 0.1 | 0.47 | 73 | 1.7 | – | –
4 | CNCc1ccc(Cn2cccn2)cc1 [F5] | 8.6 ± 0.1 10^4 M^−1 | -12.9 ± 0.6 | 6.2 ± 0.6 | -6.7 ± 0.0 | 0.45 | – | – | -12.9 | +6.2 kcal/mol
5 | O=C(c1ccccc1)C1CCNCC1 [F7] | 2.4 ± 0.4 10^4 M^−1 | -4.9 ± 0.2 | -1.1 ± 0.2 | -6.0 ± 0.1 | 0.43 | – | – | – | –
6 | CC(=O)Nc1ccc2c(c1)C=CC2=O [F9] | 4.6 ± 0.3 10^4 M^−1 | -3.3 ± 0.2 | -3.0 ± 0.2 | -6.3 ± 0.0 | 0.45 | – | – | – | –
7 | NCc1nc2ccccc2s1 [F10] | 3.3 ± 0.5 10^4 M^−1 | -1.4 ± 0.2 | -4.8 ± 0.1 | -6.1 ± 0.1 | 0.55 | – | – | – | –
